As usually defined, the inhibition is the share of the control response that was lost under treatment.

For the first test, the target named is T1, NO synthase (Rattus norvegicus, UniProt P29476).
T1 construct: the supernatant was then removed by decantation and frozen in portions at −80° C; from tissue; host or cells: rat cerebellum, 20,000 g supernatant of homogenate
Description: HTS-NOS assay (NOS assay): conversion of radioactive arginine, cation-exchanger filter plate. Particulars: 10 μM. Format: biochemical. The method, then: This assay enables the percentage inhibition of NO synthase by an active ingredient to be determined by measuring the NOS activity under the action of the active ingredient. NO synthase is mixed together with radioactively labelled arginine and the active ingredient under suitable conditions. After terminating the NO-forming reaction at a given time, the amount of unconverted arginine is determined directly or indirectly. A comparison of that amount with the amount of arginine that remains in a mixture of NOS and arginine without the addition of active ingredient and under otherwise identical conditions gives the % inhibition of NO synthase by the tested active ingredient. This assay can be carried out as follows:
(a) incubation of NO synthase with labelled arginine as substrate in a reaction vessel,
(b) separation of the labelled arginine from the labelled citrulline optionally formed as a product of the enzymatic reaction, at a time at which the citrulline concentration is increasing,
(c) measurement of the amount of arginine remaining in each case.
Separation is carried out over a filter plate membrane.
This NOS assay is suitable especially for “high throughput screening” (HTS) on microtitre plates (MTP).
In this HTS-NOS assay, radioactive arginine is used as substrate. The assay volume can be chosen in the range from 25 μl to 250 μl, according to the type of microtitre plate (MTP). Depending on the source of the enzyme used, co-factors and co-enzymes are added. Incubation of the batches on this microtitre plate (assay MTP) according to step (a) is carried out at room temperature and is for 5 to 60 minutes according to the enzyme activity used (units). At the end of the incubation (step (a)), the plate is placed into a cell harvester which is equipped with a MTP having a cation-exchanger membrane as the filter base (filter MTP). All batches of the assay MTP are transferred to the filter MTP and filtered off with suction over a cation-exchanger filter plate, a paper filter charged with phosphate groups. The filter MTP is then washed with buffer or water. By means of this procedure, the arginine substrate that remains is bound to the cation exchanger, while the enzymatically formed radioactive citrulline is washed out quantitatively. After drying the filter MTP and adding scintillation liquid, the bound arginine can be counted using a scintillation counter. An uninhibited NOS reaction is reflected in low radioactivity. An inhibited enzyme reaction means that the radioactive arginine has not been converted. This means that a high level of radioactivity is found on the filter.
Rat cerebella were used as the starting tissue. The animals were anaesthetized and sacrificed, the brain tissue, the cerebellum, was removed by dissection, 1 ml of enzyme preparation buffer was added per rat cerebellum (4° C.), and disintegration was carried out using a Polytron homogeniser for 1 minute at 6000 rpm, followed by centrifugation for 15 minutes at 4° C. and 20,000 g; the supernatant was then removed by decantation and frozen in portions at −80° C. (the precipitate was discarded).
96-well MTP having a well capacity of <250 μl were used.
Pipetting sequence: see Table 1.
When the pipetting operation was complete, a cover was placed on the MTP (assay MTP), and incubation was at 25° C. (room temperature (RT)) for from 5 to 60 minutes, according to the amount and activity of the enzyme used.
The contents of the assay MTP were then transferred with the aid of a 96-well cell harvester to a 96-well cation exchanger MTP (filter MTP) and filtered off with suction. This was followed by washing once with […] of H2O (from a bath).
The plate was then dried for 1 hour at 60° C. in a drying cabinet. The underside of the filter MTP was then accurately sealed from beneath with a “back seal”. 35 μl of scintillation fluid per well were then added by means of a pipette. The upper side of the plate was also sealed with a “top seal”. […]
Consider `Cc1cc(C)n2c(Nc3c(C)cccc3C)c(-c3ccccc3F)nc2c1` [Example 34], for which the “HTS-NOS assay: % inhibition (10 μM)” value is given as 61%.
The same measure, in the same setting: next, `C#[N+]CCCCCCNc1c(-c2ccco2)nc2cc(C)cc(C)n12` [Example 45, [6-(2-Furan-2-yl-5,7-dimethyl-imidazo[1,2-a]pyridin-3-ylamino)-hexyl]-methylidyne-ammonium]: 54%.
The same measure, in the same setting: next, `[C-]#[N+]CCCCCCNc1c(-c2ccc(C)cc2)nc2cc(C)ccn12` [Example 50, Methylidyne-[6-(7-methyl-2-p-tolyl-imidazo[1,2-a]pyridin-3-ylamino)-hexyl]-ammonium]: 78%; `CC(=O)OCc1ccc(-c2nc3cc(C)cc(C)n3c2NC2CCCCC2)o1` [Example 52, Acetic acid 5-(3-cyclohexylamino-5,7-dimethyl-imidazo[1,2-a]pyridin-2-yl)-furan-2-yl methyl ester]: 64%; `CC(=O)OCc1ccc(-c2nc3cc(C)ccn3c2NC2CCCCC2)o1` [Example 58, Acetic acid 5-(3-cyclohexylamino-7-methyl-imidazo[1,2-a]pyridin-2-yl)-furan-2-yl methyl ester]: 64%.
As to `[C-]#[N+]CCCCCCNc1c(-c2cccnc2)nc2cc(C)cc(C)n12` [Example 59, [6-(5,7-Dimethyl-2-pyridin-3-yl-imidazo[1,2-a]pyridin-3-ylamino)-hexyl]-methylidyne-ammonium], the “HTS-NOS assay: % inhibition (10 μM)” value stood at 57%.
Take `[C-]#[N+]CCCCCCNc1c(-c2ccccc2OC)nc2cc(C)cc(C)n12` [Example 61, {6-[2-(2-Methoxy-phenyl)-5,7-dimethyl-imidazo[1,2-a]pyridin-3-ylamino]-hexyl}-methylidyne-ammonium]: the “HTS-NOS assay: % inhibition (10 μM)” value is 73%.

Staying with this test, now noted: read-out: HTS-NOS assay: % inhibition (10 μM).
For the compound `Cc1cc(C)n2c(Nc3c(C)cccc3C)c(-c3ccccc3C)nc2c1` [Example 32, (2,6-Dimethyl-phenyl)-(5,7-dimethyl-2-o-tolyl-imidazo[1,2-a]pyridin-3-yl)-amine], the inhibition at 10 µM was determined as 59%.
As to `Cc1ccn2c(NC(C)(C)C)c(-c3cccc4ccccc34)nc2c1` [Example 33, Tert-butyl-(7-methyl-2-naphthalen-1-yl-imidazo[1,2-a]pyridin-3-yl)-amine], the inhibition at 10 µM was 67%.
With `Cc1cc(C)n2c(NC3CCCCC3)c(C)nc2c1` [Example 35, Cyclohexyl-(2,5,7-trimethyl-imidazo[1,2-a]-pyridin-3-yl)-amine], the inhibition at 10 µM is 55%.
Still for that read-out and setting: next, `Cc1cc(C)n2c(NC(C)(C)CC(C)(C)C)c(-c3ccc[nH]3)nc2c1` [Example 36, [5,7-Dimethyl-2-(1H-pyrrol-2-yl)-imidazo-[1,2-a]pyridin-3-yl]-(1,1,3,3-tetramethyl-butyl)-amine]: 69%.
The same measure, in the same setting: for `CCCCNc1c(C2CCCCC2)nc2cc(C)cc(C)n12` [Example 37, Butyl-(2-cyclohexyl-5,7-dimethyl-imidazo[1,2-a]pyridin-3-yl)-amine] the value was 58%; for `Cc1cc(C)n2c(NC(C)(C)CC(C)(C)C)c(-c3ccccc3C)nc2c1` [Example 38, (5,7-Dimethyl-2-o-tolyl-imidazo[1,2-a]-pyridin-3-yl)-(1,1,3,3-tetramethyl-butyl)-amine], 60%.
Turning to `COc1cccc(-c2nc3cc(C)ccn3c2Nc2c(C)cccc2C)c1OC` [Example 39, [2-(2,3-Dimethoxy-phenyl)-7-methyl-imidazo[1,2-a]pyridin-3-yl]-(2,6-dimethyl-phenyl)-amine], the inhibition at 10 µM came to 58%.
As for `Cc1ccn2c(NC(C)(C)CC(C)(C)C)c(C)nc2c1` [Example 40, (2,7-Dimethyl-imidazo[1,2-a]pyridin-3-yl)-(1,1,3,3-tetramethyl-butyl)-amine], the inhibition at 10 µM is 61%.
For `Cc1ccn2c(NC(C)(C)CC(C)(C)C)c(-c3ccc(C4OCCO4)o3)nc2c1` [Example 41, [2-(5-[1,3]Dioxolan-2-yl-furan-2-yl)-7-methyl-imidazo[1,2-a]pyridin-3-yl]-(1,1,3,3-tetramethyl-butyl)-amine], the inhibition at 10 µM came to 57%.
As to `Cc1cc(C)n2c(Nc3c(C)cccc3C)c(-c3sccc3Br)nc2c1` [Example 42, [2-(3-Bromo-thiophen-2-yl)-5,7-dimethyl-imidazo[1,2-a]pyridin-3-yl]-(2,6-dimethyl-phenyl)-amine], the inhibition at 10 µM came out at 55%.
`Cc1ccn2c(Nc3c(C)cccc3C)c(-c3ccccc3F)nc2c1` [Example 43, (2,6-Dimethyl-phenyl)-[2-(2-fluoro-phenyl)-7-methyl-imidazo[1,2-a]pyridin-3-yl]-amine]: the inhibition at 10 µM came out at 71%.
Take `Cc1cc(C)n2c(NC(C)(C)CC(C)(C)C)c(C3CCCCC3)nc2c1` [Example 44, (2-Cyclohexyl-5,7-dimethyl-imidazo[1,2-a]-pyridin-3-yl)-(1,1,3,3-tetramethyl-butyl)-amine]: the inhibition at 10 µM turned out to be 71%.
For `Cc1ccn2c(NC(C)(C)CC(C)(C)C)c(-c3ccccc3C)nc2c1` [Example 46, (7-Methyl-2-o-tolyl-imidazo[1,2-a]pyridin-3-yl)-(1,1,3,3-tetramethyl-butyl)-amine], the inhibition at 10 µM amounted to 59%.
In the case of `Cc1ccn2c(Nc3c(C)cccc3C)c(-c3cccc(Cl)c3Cl)nc2c1` [Example 47, [2-(2,3-Dichloro-phenyl)-7-methyl-imidazo[1,2-a]pyridin-3-yl]-(2,6-dimethyl-phenyl)-amine], the inhibition at 10 µM was found to be 69%.
On the same count and under the same terms, for `COc1cccc(-c2nc3cc(C)cc(C)n3c2Nc2c(C)cccc2C)c1OC` [Example 48, [2-(2,3-Dimethoxy-phenyl)-5,7-dimethyl-imidazo[1,2-a]pyridin-3-yl]-(2,6-dimethyl-phenyl)-amine] the value was 68%; for `CCCCNc1c(-c2cccc(OC)c2OC)nc2cc(C)cc(C)n12` [Example 49, Butyl-[2-(2,3-dimethoxy-phenyl)-5,7-dimethyl-imidazo[1,2-a]pyridin-3-yl]-amine], 67%; for `Cc1cc(C)n2c(NC(C)(C)C)c(-c3ccc([N+](=O)[O-])o3)nc2c1` [Example 51, Tert-butyl-[5,7-dimethyl-2-(5-nitro-furan-2-yl)-imidazo[1,2-a]pyridin-3-yl]-amine], 59%.
For the compound `COc1ccccc1-c1nc2cc(C)cc(C)n2c1NC(C)(C)CC(C)(C)C` [Example 53, [2-(2-Methoxy-phenyl)-5,7-dimethyl-imidazo[1,2-a]pyridin-3-yl]-(1,1,3,3-tetramethyl-butyl)-amine], the inhibition at 10 µM amounted to 61%.
`COc1ccc(-c2nc3cc(C)ccn3c2Nc2c(C)cccc2C)cc1OC` [Example 54, [2-(3,4-Dimethoxy-phenyl)-7-methyl-imidazo[1,2-a]pyridin-3-yl]-(2,6-dimethyl-phenyl)-amine]: the inhibition at 10 µM stood at 64%.
As for `CCCCNc1c(-c2cccc(O)c2)nc2cc(C)ccn12` [Example 55, 3-(3-Butylamino-7-methyl-imidazo[1,2-a]-pyridin-2-yl)-phenol], the inhibition at 10 µM amounted to 63%.
Still for that read-out and setting: next, `Cc1ccn2c(NC(C)(C)CC(C)(C)C)c(-c3cc4ccccc4o3)nc2c1` [Example 56, (2-Benzofuran-2-yl-7-methyl-imidazo[1,2-a]pyridin-3-yl)-(1,1,3,3-tetramethyl-butyl)-amine]: 60%; `Cc1cc(C)n2c(Nc3c(C)cccc3C)c(-c3cc4ccccc4o3)nc2c1` [Example 57, (2-Benzofuran-2-yl-5,7-dimethyl-imidazo[1,2-a]pyridin-3-yl)-(2,6-dimethyl-phenyl)-amine]: 57%; `CCCCNc1c(-c2ccccc2OC)nc2cc(C)ccn12` [Example 60, Butyl-[2-(2-methoxy-phenyl)-7-methyl-imidazo[1,2-a]pyridin-3-yl]-amine]: 52%.

Source of the values: patent publication US20040023972A1, “Use of substituted imidazo[1,2-a]-pyridin-, -pyrimidin-and-pyrazin-3-yl-amine derivatives in the preparation of medicaments for inhibiting NOS” (Gruenenthal GmbH, priority 2000, published 2004).
